Experimental data taken from patent publication US9453062B2, “Glucose dependent insulinotropic polypeptide analogs, pharmaceutical compositions and use thereof” (Beijing Hanmi Pharmaceutical Co., Ltd., priority 2011, dated 2016).
Where a SMILES comes first, the peptide text is derived from it. Bridges are numbered along the chain shown (N, C = ends). [ ]: non-standard residue; d: D form. The star is where a group is joined. Palmitoyl = CCCCCCCCCCCCCCCC(=O)*; Aib = CC(C)(N)C(=O)O

Key:
hGIPR = target: T1, hGIPR (Homo sapiens, UniProt P48546); test: hGIPR-mediated cAMP induction assay in CHO cell line; type: cell-based; conditions: Table 3; for EC50: CHO hGIPR cells; for GIP Receptor Relative Potency: against native GIP
T1 construct: expressed in transfected cells; host or cells: CHO
T1 sequence (P48546 22-466): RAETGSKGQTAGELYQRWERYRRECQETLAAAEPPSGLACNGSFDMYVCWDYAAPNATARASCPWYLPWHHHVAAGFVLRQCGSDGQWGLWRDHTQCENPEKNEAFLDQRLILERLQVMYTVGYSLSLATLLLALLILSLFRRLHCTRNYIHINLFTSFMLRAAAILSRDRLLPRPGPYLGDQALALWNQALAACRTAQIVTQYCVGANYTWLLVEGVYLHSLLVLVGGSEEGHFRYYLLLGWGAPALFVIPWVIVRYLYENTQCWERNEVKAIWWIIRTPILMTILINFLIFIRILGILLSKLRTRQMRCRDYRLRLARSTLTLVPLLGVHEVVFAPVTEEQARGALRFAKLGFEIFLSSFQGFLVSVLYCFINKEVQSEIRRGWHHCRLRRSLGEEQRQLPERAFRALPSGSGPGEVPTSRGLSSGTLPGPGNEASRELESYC

hGLP-1R = target: T2, hGLP-1R (Homo sapiens, UniProt P43220); test: hGLP-1R-mediated cAMP induction assay in CHO cell line; type: cell-based; conditions: Table 3; for EC50: CHO hGLP1R cells; for GLP-1 Receptor Relative Potency: against native GLP-1;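 on all read-outs here: CHO cells expressing human GLP-1R, treated 30 min at 37 °C, intracellular cAMP measured by competitive fluorescent immunoassay and converted via a cAMP standard curve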
T2 construct: expressed in transfected cells; host or cells: CHO
T2 sequence (P43220 24-463): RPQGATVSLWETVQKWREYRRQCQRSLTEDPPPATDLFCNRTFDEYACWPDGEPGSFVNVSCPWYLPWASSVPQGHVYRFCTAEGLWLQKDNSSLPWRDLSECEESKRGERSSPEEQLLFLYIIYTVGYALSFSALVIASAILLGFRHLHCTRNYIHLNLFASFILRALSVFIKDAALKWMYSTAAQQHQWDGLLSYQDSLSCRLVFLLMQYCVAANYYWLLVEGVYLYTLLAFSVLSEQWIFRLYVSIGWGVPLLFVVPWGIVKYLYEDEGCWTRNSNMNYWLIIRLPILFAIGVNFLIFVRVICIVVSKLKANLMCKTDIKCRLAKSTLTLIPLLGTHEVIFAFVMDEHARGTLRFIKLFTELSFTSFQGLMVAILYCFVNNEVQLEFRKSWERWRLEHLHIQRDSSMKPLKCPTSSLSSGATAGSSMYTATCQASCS
From the text: The cAMP in the sample or standard competes with horseradish peroxidase (HRP)-labeled cAMP conjugate for binding sites on the anti-cAMP antibodies. In the absence of cAMP, most of the HRP-cAMP conjugate is bound to the antibody. Increasing concentrations of cAMP competitively decrease the amount of bound conjugate, thus decreasing measured HRP activity.
Assay kit: CatchPoint™ Cyclic-AMP Fluorescent Assay Kit (Molecular Devices, Product # R8088)
Cell lines: CHO hGLP1R, CHO hGIPR
Cell seeding: CHO hGLP1R or CHO hGIPR cells: 10,000 cells/well/100 uL at 37° C. 5% CO2 overnight.
Gently aspirate off media and wash the cells with KRBG Buffer, 100 uL/well.
Incubate the plate for 10 min at room temperature. Then add the KRBG buffer with 3× final concentration of the tested samples (5-foled series diluted from 5,000 nM), 50 uL/well. Incubate the plate at 37° C. 5% CO2 for 30 min.
Add 50 uL of Lysis buffer to each well and put the plate on a shaker for 10 min.
Place 40 uL of samples and analyze in appropriate wells. And test the cAMP concentration in each sample by following the manufacture's instruction.
Detect the fluorescence signal at Ex: 490 nm and Em: 530 nm. Transfer the FI signal to cAMP concentration by the cAMP standard curve. The Dose-response curve and EC50 were obtained by logistic fitting of Origin 8.

CCCCCCCCCCCCCCCC(=O)N[C@@H](CCC(=O)NCCCC[C@H](NC(=O)[C@@H](NC(=O)[C@H](CC(C)C)NC(=O)[C@H](Cc1c[nH]c2ccccc12)NC(=O)[C@H](C)NC(=O)[C@@H](NC(=O)[C@H](Cc1ccccc1)NC(=O)[C@H](CCC(=O)O)NC(=O)[C@H](CCCNC(=N)N)NC(=O)[C@@H](NC(=O)[C@H](C)NC(=O)[C@H](CCC(=O)O)NC(=O)[C@H](CCCCN)NC(=O)[C@H](CCC(=O)O)NC(=O)[C@H](CCSC)NC(=O)[C@H](Cc1ccc(O)cc1)NC(=O)[C@@H](NC(=O)[C@H](CO)NC(=O)[C@H](Cc1ccc(O)cc1)NC(=O)[C@H](CC(=O)O)NC(=O)[C@H](CO)NC(=O)[C@@H](NC(=O)[C@H](Cc1ccccc1)NC(=O)[C@@H](NC(=O)CNC(=O)[C@H](CCC(=O)O)NC(=O)C(C)(C)NC(=O)[C@@H](N)Cc1ccc(O)cc1)[C@@H](C)O)[C@@H](C)O)[C@@H](C)CC)C(C)C)[C@@H](C)CC)C(C)C)C(=O)NCC(=O)NCC(=O)N1CCC[C@H]1C(=O)N[C@@H](CO)C(=O)N[C@@H](CO)C(=O)NCC(=O)N[C@@H](C)C(=O)N1CCC[C@H]1C(=O)N1CCC[C@H]1C(=O)N1CCC[C@H]1C(=O)N[C@@H](CO)C(N)=O)C(=O)O [Compound 094]
EC50 (hGIPR): 0.85 nM | GIP Receptor Relative Potency (hGIPR): 4.7 | EC50 (hGLP-1R): 0.67 nM | GLP-1 Receptor Relative Potency (hGLP-1R): 149.2

CCCCCCCCCCCCCCCC(=O)NCCCC[C@H](NC(=O)[C@H](CO)NC(=O)[C@@H]1CCCN1C(=O)[C@@H]1CCCN1C(=O)[C@@H]1CCCN1C(=O)[C@H](C)NC(=O)CNC(=O)[C@H](CO)NC(=O)[C@H](CO)NC(=O)[C@@H]1CCCN1C(=O)CNC(=O)CNC(=O)[C@H](CCCCN)NC(=O)[C@@H](NC(=O)[C@H](CC(C)C)NC(=O)[C@H](Cc1c[nH]c2ccccc12)NC(=O)[C@H](CS)NC(=O)[C@@H](NC(=O)[C@H](Cc1ccccc1)NC(=O)[C@H](CCC(=O)O)NC(=O)[C@H](CCCNC(=N)N)NC(=O)[C@@H](NC(=O)[C@H](C)NC(=O)[C@H](CCC(=O)O)NC(=O)[C@H](CCCCN)NC(=O)[C@H](CCC(=O)O)NC(=O)[C@H](CCSC)NC(=O)[C@H](Cc1ccc(O)cc1)NC(=O)[C@@H](NC(=O)[C@H](CO)NC(=O)[C@H](Cc1ccc(O)cc1)NC(=O)[C@H](CC(=O)O)NC(=O)[C@H](CO)NC(=O)[C@@H](NC(=O)[C@H](Cc1ccccc1)NC(=O)[C@@H](NC(=O)CNC(=O)[C@H](CCC(=O)O)NC(=O)C(C)(C)NC(=O)[C@@H](N)Cc1ccc(O)cc1)[C@@H](C)O)[C@@H](C)O)[C@@H](C)CC)C(C)C)[C@@H](C)CC)C(C)C)C(N)=O [Compound 096] (H-Y[Aib]EGTFTSDYSIYMEKEAVREFICWLVKGGPSSGAPPPSK(Palmitoyl)-NH2)
EC50 (hGIPR): 0.1 nM | GIP Receptor Relative Potency (hGIPR): 42 | EC50 (hGLP-1R): 0.253 nM | GLP-1 Receptor Relative Potency (hGLP-1R): 404.7

CCCCCCCCCCCCCCCC(=O)NCCCC[C@H](NC(=O)[C@H](CO)NC(=O)[C@@H]1CCCN1C(=O)[C@@H]1CCCN1C(=O)[C@@H]1CCCN1C(=O)[C@H](C)NC(=O)CNC(=O)[C@H](CO)NC(=O)[C@H](CO)NC(=O)[C@@H]1CCCN1C(=O)CNC(=O)CNC(=O)[C@H](CCCCN)NC(=O)[C@@H](NC(=O)[C@H](CC(C)C)NC(=O)[C@H](Cc1c[nH]c2ccccc12)NC(=O)[C@@H]1CCC(=O)NCCCC[C@H](NC(=O)[C@@H](NC(=O)[C@H](C)NC(=O)[C@H](CCC(=O)O)NC(=O)[C@H](CCCCN)NC(=O)[C@H](CCC(=O)O)NC(=O)[C@H](CCSC)NC(=O)[C@H](Cc2ccc(O)cc2)NC(=O)[C@@H](NC(=O)[C@H](CO)NC(=O)[C@H](Cc2ccc(O)cc2)NC(=O)[C@H](CC(=O)O)NC(=O)[C@H](CO)NC(=O)[C@@H](NC(=O)[C@H](Cc2ccccc2)NC(=O)[C@@H](NC(=O)CNC(=O)[C@H](CCC(=O)O)NC(=O)C(C)(C)NC(=O)[C@@H](N)Cc2ccc(O)cc2)[C@@H](C)O)[C@@H](C)O)[C@@H](C)CC)C(C)C)C(=O)N[C@@H](CCC(=O)O)C(=O)N[C@@H](Cc2ccccc2)C(=O)N[C@@H]([C@@H](C)CC)C(=O)N1)C(C)C)C(N)=O [Compound 101] (H-Y[Aib]EGTFTSDYSIYMEKEAVKEFIEWLVKGGPSSGAPPPSK(Palmitoyl)-NH2; lactam 20-24)
EC50 (hGIPR): 0.021 nM | GIP Receptor Relative Potency (hGIPR): 328.6 | EC50 (hGLP-1R): 0.056 nM | GLP-1 Receptor Relative Potency (hGLP-1R): 628.6

CCCCCCCCCCCCCCCC(=O)NCCCC[C@H](NC(=O)[C@H](CO)NC(=O)[C@@H]1CCCN1C(=O)[C@@H]1CCCN1C(=O)[C@@H]1CCCN1C(=O)[C@H](C)NC(=O)CNC(=O)[C@H](CO)NC(=O)[C@H](CO)NC(=O)[C@@H]1CCCN1C(=O)CNC(=O)CNC(=O)[C@@H]1CCCCNC(=O)CC[C@H](NC(=O)[C@@H](NC(=O)[C@H](Cc2ccccc2)NC(=O)[C@H](CCC(=O)O)NC(=O)[C@H](CCCCN)NC(=O)[C@@H](NC(=O)[C@H](C)NC(=O)[C@H](CCC(=O)O)NC(=O)[C@H](CCCCN)NC(=O)[C@H](CCC(=O)O)NC(=O)[C@H](CCSC)NC(=O)[C@H](Cc2ccc(O)cc2)NC(=O)[C@@H](NC(=O)[C@H](CO)NC(=O)[C@H](Cc2ccc(O)cc2)NC(=O)[C@H](CC(=O)O)NC(=O)[C@H](CO)NC(=O)[C@@H](NC(=O)[C@H](Cc2ccccc2)NC(=O)[C@@H](NC(=O)CNC(=O)[C@H](CCC(=O)O)NC(=O)C(C)(C)NC(=O)[C@@H](N)Cc2ccc(O)cc2)[C@@H](C)O)[C@@H](C)O)[C@@H](C)CC)C(C)C)[C@@H](C)CC)C(=O)N[C@@H](Cc2c[nH]c3ccccc23)C(=O)N[C@@H](CC(C)C)C(=O)N[C@@H](C(C)C)C(=O)N1)C(N)=O [Compound 102] (H-Y[Aib]EGTFTSDYSIYMEKEAVKEFIEWLVKGGPSSGAPPPSK(Palmitoyl)-NH2; lactam 24-28; N-terminus assumed)
EC50 (hGIPR): 0.015 nM | GIP Receptor Relative Potency (hGIPR): 460 | EC50 (hGLP-1R): 0.069 nM | GLP-1 Receptor Relative Potency (hGLP-1R): 510.1

CC[C@H](C)[C@H](NC(=O)[C@H](CO)NC(=O)[C@H](Cc1ccc(O)cc1)NC(=O)[C@H](CC(=O)O)NC(=O)[C@H](CO)NC(=O)[C@@H](NC(=O)[C@H](Cc1ccccc1)NC(=O)[C@@H](NC(=O)CNC(=O)[C@H](CCC(=O)O)NC(=O)C(C)(C)NC(=O)[C@@H](N)Cc1ccc(O)cc1)[C@@H](C)O)[C@@H](C)O)C(=O)N[C@@H](Cc1ccc(O)cc1)C(=O)N[C@@H](CCSC)C(=O)N[C@@H](CCC(=O)O)C(=O)N[C@@H](CCCCN)C(=O)N[C@@H](CCC(=O)O)C(=O)N[C@@H](C)C(=O)N[C@H](C(=O)N[C@@H](CCCNC(=N)N)C(=O)N[C@@H](CCC(=O)O)C(=O)N[C@@H](Cc1ccccc1)C(=O)N[C@H](C(=O)N[C@@H](CS)C(=O)N[C@@H](Cc1c[nH]c2ccccc12)C(=O)N[C@@H](CC(C)C)C(=O)N[C@H](C(=O)N[C@@H](CCCCN)C(=O)NCC(=O)NCC(=O)N1CCC[C@H]1C(=O)N[C@@H](CO)C(=O)N[C@@H](CO)C(=O)NCC(=O)N[C@@H](C)C(=O)N1CCC[C@H]1C(=O)N1CCC[C@H]1C(=O)N1CCC[C@H]1C(=O)N[C@@H](CO)C(=O)N[C@@H](CCCCN)C(N)=O)C(C)C)[C@@H](C)CC)C(C)C [Compound 105] (H-Y[Aib]EGTFTSDYSIYMEKEAVREFICWLVKGGPSSGAPPPSK-NH2; N-terminus assumed)
EC50 (hGIPR): 0.4 nM | EC50 (hGLP-1R): 3.94 nM

CC[C@H](C)[C@H](NC(=O)[C@H](Cc1ccccc1)NC(=O)[C@H](CCC(=O)O)NC(=O)[C@H](CCCNC(=N)N)NC(=O)[C@@H](NC(=O)[C@H](C)NC(=O)[C@H](CCC(=O)O)NC(=O)[C@H](CCCCN)NC(=O)[C@H](CCC(=O)O)NC(=O)[C@H](CCSC)NC(=O)[C@H](Cc1ccc(O)cc1)NC(=O)[C@@H](NC(=O)[C@H](CO)NC(=O)[C@H](Cc1ccc(O)cc1)NC(=O)[C@H](CC(=O)O)NC(=O)[C@H](CO)NC(=O)[C@@H](NC(=O)[C@H](Cc1ccccc1)NC(=O)[C@@H](NC(=O)CNC(=O)[C@H](CCC(=O)O)NC(=O)C(C)(C)NC(=O)[C@@H](N)Cc1ccc(O)cc1)[C@@H](C)O)[C@@H](C)O)[C@@H](C)CC)C(C)C)C(=O)N[C@@H](C)C(=O)N[C@@H](Cc1c[nH]c2ccccc12)C(=O)N[C@@H](CC(C)C)C(=O)N[C@H](C(=O)N[C@@H](CCCCN)C(=O)NCC(=O)NCC(=O)N1CCC[C@H]1C(=O)N[C@@H](CO)C(=O)N[C@@H](CO)C(=O)NCC(=O)N[C@@H](C)C(=O)N1CCC[C@H]1C(=O)N1CCC[C@H]1C(=O)N1CCC[C@H]1C(=O)N[C@@H](CO)C(=O)N[C@@H](CCCCNC(=O)CCCCCCCCCCCCCCC(=O)O)C(N)=O)C(C)C [Compound 106]
EC50 (hGIPR): 0.097 nM | GIP Receptor Relative Potency (hGIPR): 67.0 | EC50 (hGLP-1R): 0.922 nM | GLP-1 Receptor Relative Potency (hGLP-1R): 157.8
